Results: patent US20240226122A9, “TREATMENT OF GASTROINTESTINAL DISORDERS” (Greenspace Labs, Inc., priority 2022, published 2024)

Test: Micro evaporation screening, re-dissolution of API:polymer matrices
Assay type: physicochemical
Procedure: Micro evaporation screening experiments were done by dissolving API and polymer in an organic solvent and mixed in centrifuge tubes. Then the solvent was removed using vacuum concentrator. Samples were then mixed for 4, 10, and 30 minutes using phosphate buffer pH 6.8 as a reconstitution medium. For Eudragit S100 phosphate buffer pH 7.4 was used as a reconstitution media, citrate buffer pH 4.5 was used for Eudragit EPO. Phosphate buffer pH 6.8 was used for the rest of the polymers. Samples were mixed for 4, 10, and 30 minutes. Analysis was done by UV spectrometry to measure re-dissolution behavior of polymer system.
Several organic solvents were screened for the micro evaporation screening trials including acetone, tetrahydrofuran, dichloromethane, methanol, and ethanol.
Round 1 matrix Screening • 30:70 API:Soluplus • 30:70 API:Eudragit EPO • 30:70 API:Kollidon VA 64 • 25:75 API:PVP K30 • 25:75 API:Eudragit S100
Round 2 matrix screening with surfactants
Surfactants/solubilizers (5-10%) were screened for enhancement of spring-parachute effect, which is a strategy used in the pharmaceutical formulation to improve the solubility and bioavailability of poorly-soluble drugs: • PEG 1500 • Poloxamer 407 (HLB˜18) • SLS (HLB˜40) • Kolliphor RH40 (HLB−15) • TPGS (HLB˜13)
CBD Miniaturized Screening Experiment—Micro Evaporation Matrices screened: • API:Soluplus (30:70) • API:Eudragit EPO (30:70) • API:PVP K30 (25:75) • API:Eudragit S100 (25:75) • API:Kollidon VA64 (10:90) • API+Kollidon VA64+PEG1500 (10:85:5) • API+Kollidon VA64+SLS (10:85:5) • API+Kollidon VA64+Kolliphor RH40 (10:85:5) • API+Kollidon VA64+TPGS (10:85:5) • API+Kollidon VA64+Poloxamer 407 (10:85:5)
CBDA Miniaturized Screening Experiment—Micro Evaporation Matrices screened: • API:Eudragit EPO (30:70) • API:PVP K30 (30:70) • API:Soluplus (30:70) • API:Eudragit S100 (30:70) • API:Kollidon VA64 (25:75) • API+Kollidon VA64+PEG1500 (25:70:5) • API+Kollidon VA64+SLS (25:70:5) • API+Kollidon VA64+Kolliphor RH40 (25:70:5) • API+Kollidon VA64+TPGS (25:70:5) • API+Kollidon VA64+Poloxamer 407 (25:70:5)

With `C=C(C)[C@@H]1CCC(C)=C[C@H]1c1c(O)cc(CCCCC)cc1O` [CBD, cannabidiol, reference compound] the “re-dissolution of API from matrix” value (CBD matrix with Kollidon VA64, at 10 min, 1 mg API per tube) was “complete dissolution”.
Compound `C=C(C)[C@@H]1CCC(C)=C[C@H]1c1c(O)cc(CCCCC)c(C(=O)O)c1O` [CBDA, cannabidiolic acid] has a dissolution concentration (CBDA matrix with Kollidon VA64 with addition of SLS, Kolliphor RH40, 10 and 30 min timepoints) of 490 to 500 µg/mL.
In the case of `CCCCCc1cc(O)c(C/C=C(\C)CCC=C(C)C)c(O)c1C(=O)O` [CBGA, cannabigerolic acid], the dissolution concentration (CBGA matrix with Kollidon VA64 with addition of SLS and Poloxamer 407) is reported as 520 to 550 µg/mL.
